Test system: HCV replicon (1b) in replicon cells
Assay: Cell-based HCV replicon assay (replicon RNA level by real time PCR, Taqman)
Details: Hepatitis C virus, 72 h, read-out: 1b EC50
Protocol: To measure cell-based anti-HCV activity of selected compounds of the present invention, replicon cells were seeded at 5000 cells/well in 96-well collagen I-coated Nunc plates in the presence of the test compound. Various concentrations of test compound, typically in 10 serial 2-fold dilutions, were added to the assay mixture, with the starting concentration ranging from 250 μM to 1 μM. The final concentration of dimethylsulfoxide was 0.5%, fetal bovine serum was 5%, in the assay media. Cells were harvested on day 3 by the addition of 1× cell lysis buffer (Ambion cat #8721). The replicon RNA level was measured using real time PCR (Taqman assay). The amplicon was located in 5B. The PCR primers were: 5B.2F, ATGGACAGGCGCCCTGA (SEQ ID. NO. 1); 5B.2R, […] (SEQ ID. NO. 2); the probe sequence was FAM-labeled CACGCCATGCGCTGCGG (SEQ ID. NO. 3). GAPDH RNA was used as endogenous control and was amplified in the same reaction as NS5B (multiplex PCR) using primers and VIC-labeled probe recommended by the manufacturer (PE Applied Biosystem). The real-time RT-PCR reactions were run on ABI PRISM 7900HT Sequence Detection System using the following program: 48° C. for 30 minutes, 95° C. for 10 minutes, 40 cycles of 95° C. for 15 sec, 60° C. for 1 minute. The ACT values (CT5B-CTGAPDH) were plotted against the concentration of test compound and fitted to the sigmoid dose-response model using XLfit4 (MDL). EC50 was defined as the concentration of inhibitor necessary to achieve ΔCT=1 over the projected baseline; EC90 the concentration necessary to achieve ΔCT=3.2 over the baseline. Alternatively, to quantitate the absolute amount of replicon RNA, a standard curve was established by including serially diluted T7 transcripts of replicon RNA in the Taqman assay. All Taqman reagents were from PE Applied Biosystems. Such an assay procedure was described in detail in e.g. Malcolm et al., Antimicrobial Agents and Chemotherapy 50: 1013-1020 (2006).

Point of comparison: `CCCCOC(=O)[C@H](C)NP(=O)(Oc1cccc2ccccc12)O[C@H](C)[C@H]1O[C@@H](n2ccc(N)nc2=O)[C@](C)(O)[C@@H]1O` (stereo partly shown) [Compound 2], EC50 10 µM. Against it:
- CCCCOC(=O)[C@H](C)NP(=O)(Oc1cccc2ccccc12)O[C@H](C)[C@H]1O[C@@H](n2ccc(=O)[nH]c2=O)[C@](C)(O)[C@@H]1O (stereo partly shown) [Compound 4] — higher, > 100 µM
- CCCCOC(=O)[C@H](C)NP(=O)(Oc1cccc2ccccc12)O[C@@H](C)[C@H]1O[C@@H](n2ccc(N)nc2=O)[C@](C)(O)[C@@H]1O (stereo partly shown) [Compound 6] — higher, > 100 µM
- CCCCOC(=O)[C@H](C)NP(=O)(Oc1cccc2ccccc12)O[C@H](C)[C@H]1O[C@@H](n2cnc3c(=O)[nH]c(N)nc32)[C@](C)(O)[C@@H]1O (stereo partly shown) [Compound 10] — higher, > 100 µM

Same assay, conditions: Hepatitis C virus, 72 h; HCV 1b replicon cells, harvested on day 3; EC50 = concentration to achieve ΔCT=1 over projected baseline; read-out: 1b EC50

Point of comparison: `CC(O)[C@H]1O[C@@H](n2ccc(N)nc2=O)[C@](C)(F)[C@@H]1O` (stereo partly shown) [Compound 8], EC50 38 µM. Against it:
- C[C@@H](O)[C@H]1O[C@@H](n2ccc(N)nc2=O)[C@](C)(O)[C@@H]1O [Compound 1] — higher, > 100 µM
- C[C@@H](O)[C@H]1O[C@@H](n2ccc(=O)[nH]c2=O)[C@](C)(O)[C@@H]1O [Compound 3] — higher, > 100 µM
- C[C@H](O)[C@H]1O[C@@H](n2ccc(N)nc2=O)[C@](C)(O)[C@@H]1O [Compound 5] — higher, > 100 µM
- CC(O)[C@H]1O[C@@H](n2ccc(NC(=O)c3ccccc3)nc2=O)[C@](C)(F)[C@@H]1O (stereo partly shown) [Compound 7] — higher, > 100 µM
- C[C@@H](O)[C@H]1O[C@@H](n2cnc3c(=O)[nH]c(N)nc32)[C@](C)(O)[C@@H]1O [Compound 9] — higher, > 100 µM
- C[C@H](O)[C@H]1O[C@@H](n2cnc3c(=O)[nH]c(N)nc32)[C@](C)(O)[C@@H]1O [Compound 11] — higher, > 100 µM
- CC(O)[C@H]1O[C@@H](n2cnc3c(OCc4ccccc4)nc(NC(=O)c4ccccc4)nc32)[C@](C)(F)[C@@H]1O (stereo partly shown) [Compound 12] — 2.7-fold lower, 14 µM
- CC(O)[C@H]1O[C@@H](n2cnc3c(=O)[nH]c(N)nc32)[C@](C)(F)[C@@H]1O (stereo partly shown) [Compound 13] — 11-fold lower, 3.5 µM

From patent publication US9408863B2, “5′-substituted nucleoside analogs and methods of use thereof for the treatment of viral diseases” (Merck Sharp & Dohme Corp., priority 2011, dated 2016)
